The structures appear in SMILES notation.

This assay deals with full length MPS1 (Homo sapiens (Human), UniProt P33981). In words: Measurement of inhibition of MPS1 kinase (Caliper EZ reader, fluorescent labelled peptide H236). Type of assay: biochemical. The settings on record: full length MPS1 12.5 nM or 3 nM, peptide H236 5 μM, ATP 10 μM, 60 min at room temperature.
full length MPS1, sequence (P33981 whole entry): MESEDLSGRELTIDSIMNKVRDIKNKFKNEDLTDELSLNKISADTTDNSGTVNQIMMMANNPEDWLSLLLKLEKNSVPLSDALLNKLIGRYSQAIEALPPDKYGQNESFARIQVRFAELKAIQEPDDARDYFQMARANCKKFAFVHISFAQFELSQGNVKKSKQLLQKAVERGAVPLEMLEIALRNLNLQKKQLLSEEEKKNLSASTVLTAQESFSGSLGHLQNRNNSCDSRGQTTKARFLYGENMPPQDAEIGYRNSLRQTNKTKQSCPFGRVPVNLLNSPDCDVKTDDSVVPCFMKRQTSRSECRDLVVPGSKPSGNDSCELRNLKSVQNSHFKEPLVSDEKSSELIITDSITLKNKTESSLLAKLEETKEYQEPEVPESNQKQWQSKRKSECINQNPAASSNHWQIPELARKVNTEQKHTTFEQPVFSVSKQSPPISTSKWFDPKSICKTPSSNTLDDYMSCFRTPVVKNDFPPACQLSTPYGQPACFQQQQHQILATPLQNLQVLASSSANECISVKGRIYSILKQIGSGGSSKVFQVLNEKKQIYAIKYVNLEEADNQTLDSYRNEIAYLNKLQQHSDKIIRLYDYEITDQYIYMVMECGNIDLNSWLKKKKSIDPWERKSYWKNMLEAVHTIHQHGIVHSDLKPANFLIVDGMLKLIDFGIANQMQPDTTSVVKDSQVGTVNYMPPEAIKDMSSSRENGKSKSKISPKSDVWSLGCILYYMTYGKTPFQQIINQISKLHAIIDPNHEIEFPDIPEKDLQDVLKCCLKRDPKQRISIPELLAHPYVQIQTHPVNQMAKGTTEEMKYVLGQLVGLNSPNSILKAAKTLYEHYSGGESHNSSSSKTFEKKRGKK
Regarding `CNC(=O)c1ccc2cnc(Nc3ccc(-c4cnc(C)n4C)cc3OC)cc2c1` [Example 90, 3-((4-(1,2-Dimethyl-1H-imidazol-5-yl)-2-methoxyphenyl)amino)-N-methylisoquinoline-6-carboxamide], the midpoint of inhibition, the IC50, lay at 5 nM. For `COCCNC(=O)c1ccc(Nc2cc3cc(-c4cnn(CC(C)(C)O)c4)ccc3cn2)c(OC)c1` [Example 62, 4-((6-(1-(2-Hydroxy-2-methylpropyl)-1H-pyrazol-4-yl)isoquinolin-3-yl)amino)-3-methoxy-N-(2-methoxyethyl)benzamide], 3 nM corresponded to half-maximal inhibition (IC50).

As for `COc1cc(-c2cnc(C)n2C)ccc1Nc1cc2cc(-c3cnn(CC(C)(C)O)c3)ccc2cn1` [Example 29, 1-(4-(3-((4-(1,2-Dimethyl-1H-imidazol-5-yl)-2-methoxyphenyl)amino)isoquinolin-6-yl)-1H-pyrazol-1-yl)-2-methylpropan-2-ol], the IC50 is 2 nM.
